Source: patent US20230346878A1, “Treatment of Abdominal Pain Associated with Diarrhea-Predominant Irritable Bowel Syndrome” (Ironwood Pharmaceuticals, Inc., priority 2019, published 2023)
Where a SMILES comes first, the peptide text is derived from it. Bridges are numbered along the chain shown (N, C = ends).

Test: Phase 1 study of linaclotide DR2: PK in plasma and inspection of stool for intact tablets
Type: in vivo, human
Procedure: Delayed release “DR2” linaclotide tablets were administered in a double-blind, placebo-controlled Phase 1 study randomized healthy adult volunteers at dosing levels of 300 μg, 1200 μg, and 3000 μg or placebo for 7 days. Safety and tolerability were assessed at each dose and prior to escalation to the highest dose. Gastrointestinal pharmacodynamics (“PD”) assessments included change from baseline (CFB) in bowel movement frequency (Spontaneous bowel movement [SBM]/week) and stool consistency (Bristol stool form scale [BSFS]). To confirm release of linaclotide, all of the subject's stools were inspected for intact DR2 tablets.
PK assessments were conduct through blood determination of linaclotide and its metabolite in plasma, and feces for the determination of linaclotide and its metabolite in stool, were collected from all dosed subjects during the Clinic Period.

For `C[C@@H]1NC(=O)[C@@H]2CCCN2C(=O)[C@H](CC(N)=O)NC(=O)[C@@H]2CSSC[C@H](N)C(=O)N[C@H]3CSSC[C@H](NC1=O)C(=O)N[C@@H]([C@@H](C)O)C(=O)NCC(=O)N[C@H](C(=O)N[C@@H](Cc1ccc(O)cc1)C(=O)O)CSSC[C@H](NC(=O)[C@H](Cc1ccc(O)cc1)NC(=O)[C@H](CCC(=O)O)NC3=O)C(=O)N2` [Linaclotide, linaclotide] (H-CCEYCCNPACTGCY-OH; disulfide 1-6, 2-10, 5-13 (inferred)), the “systemic absorption / exposure” value (DR2 tablets orally for 7 days) was “minimally absorbed with negligible systemic exposure” and the detection in plasma (following 7 days of oral administration of DR2) was “Neither linaclotide nor its active metabolite were detected”.
